Experiments:
Format in all cases: in vivo
[1] = system: velvetleaf (Abutilon theophrasti MEDIC.); assay: Test Example 1: foliar treatment, upland pot; details: 7 g/ha, 21st day after application
Text: Upland field soil was put into a 1/170,000 hectare pot, and seeds of various plants were sown. […] The spray solutions thus prepared were applied for foliar treatment by a small sprayer.

[2] = system: barnyardgrass (Echinochloa crus-galli L.); assay: Test Example 1: foliar treatment, upland pot; details: 7 g/ha, 21st day after application
Text: (§1) Upland field soil was put into a 1/170,000 hectare pot, and seeds of various plants were sown. When the respective plants reached predetermined leaf stage ((1) barnyardgrass (Echinochloa crus-galli L.): 1.0 to 3.3 leaf stage, (2) crabgrass (Digitaria sanguinalis L.): 1.2 to 3.0 leaf stage, (3) green foxtail (Setaria viridis L.): 1.5 to 3.3 leaf stage, (4) redroot pigweed (Amaranthus retroflexus L.): 0.1 to 2.0 leaf stage, (5) prickly sida (Sida spinosa L.): cotyledon stage to 2.0 leaf stage, (6) velvetleaf (Abutilon theophrasti MEDIC.): 0.1 to 2.0 leaf stage, (7) rice (Oryza sativa L.): 1.3 to 3.0 leaf stage, (8) corn (Zea mays L.): 2.5 to 3.4 leaf stage, and (9) soybean (Glycine max Merr.): primary leaf stage to 0.3 leaf stage), wettable powders or emulsifiable concentrates of the compounds of the present invention prepared in accordance with a conventional preparation method, were weighed so that the active ingredients became the prescribed amounts, and diluted with water in an amount corresponding to 500 liter per 1 hectare (containing 0.1 vol % of an agricultural spreader (“KUSARINOH”, manufactured by NIHON NOHYAKU CO., LTD.)). The spray solutions thus prepared were applied for foliar treatment by a small sprayer.

[3] = system: corn (Zea mays L.); assay: Test Example 1: foliar treatment, upland pot; details: 7 g/ha, 21st day after application, crop
Text: as §1

[4] = system: crabgrass (Digitaria sanguinalis L.); assay: Test Example 1: foliar treatment, upland pot; details: 7 g/ha, 21st day after application
Text: as §1

[5] = system: green foxtail (Setaria viridis L.); assay: Test Example 1: foliar treatment, upland pot; details: 7 g/ha, 21st day after application
Text: as §1

[6] = system: prickly sida (Sida spinosa L.); assay: Test Example 1: foliar treatment, upland pot; details: 7 g/ha, 21st day after application
Text: as §1

[7] = system: redroot pigweed (Amaranthus retroflexus L.); assay: Test Example 1: foliar treatment, upland pot; details: 7 g/ha, 21st day after application
Text: as §1

[8] = system: rice (Oryza sativa L.); assay: Test Example 1: foliar treatment, upland pot; details: 7 g/ha, 21st day after application, crop
Text: as §1

[9] = system: soybean (Glycine max Merr.); assay: Test Example 1: foliar treatment, upland pot; details: 7 g/ha, 21st day after application, crop
Text: as §1

[10] = system: barnyardgrass (Echinochloa crus-galli L.); assay: Test Example 2: soil application on the day after sowing; details: 250 g/ha, 19th to 22nd day after application
Text: (§2) Upland field soil was put into a 1/170,000 hectare pot, and seeds of various plants (barnyardgrass (Echinochloa crus-galli L.), crabgrass (Digitaria sanguinalis L.), green foxtail (Setaria viridis L.), redroot pigweed (Amaranthus retroflexus L.), prickly sida (Sida spinosa L.), velvetleaf (Abutilon theophrasti MEDIC.), rice (oryza sativa L.), corn (Zea mays L.) and soybean (Glycine max Merr.)) were sown. On the day after sowing, wettable powders or emulsifiable concentrates of the compounds of the present invention prepared in accordance with a conventional preparation method, were weighed so that the active ingredients became the prescribed amounts, and diluted with water in an amount corresponding to 500 liter per 1 hectare, followed by soil application with a small sprayer.

[11] = system: corn (Zea mays L.); assay: as above; details: 250 g/ha, 19th to 22nd day after application, crop
Text: as §2

[12] = system: crabgrass (Digitaria sanguinalis L.); assay: as above; details: 250 g/ha, 19th to 22nd day after application
Text: as §2

[13] = system: green foxtail (Setaria viridis L.); assay: as above; details: 250 g/ha, 19th to 22nd day after application
Text: as §2

[14] = system: prickly sida (Sida spinosa L.); assay: as above; details: 250 g/ha, 19th to 22nd day after application
Text: as §2

[15] = system: redroot pigweed (Amaranthus retroflexus L.); assay: as above; details: 250 g/ha, 19th to 22nd day after application
Text: as §2

[16] = system: rice (Oryza sativa L.); assay: as above; details: 250 g/ha, 19th to 22nd day after application, crop
Text: as §2

[17] = system: soybean (Glycine max Merr.); assay: as above; details: 250 g/ha, 19th to 22nd day after application, crop
Text: as §2

[18] = system: velvetleaf (Abutilon theophrasti MEDIC.); assay: as above; details: 250 g/ha, 19th to 22nd day after application
Text: as §2

[19] = system: Japanese bulrush (Scirpus juncoides); assay: Test Example 4: paddy field pot, water application; details: 63 g/ha, 14th day after application
Text: (§3) Paddy field soil was put into a 1/1,000,000 hectare pot, and seeds of barnyardgrass (Echinochloa oryzicola vasing.) and Japanese bulrush (Scirpus juncoides) were sown and lightly covered with soil. Then, pot was left to stand in a greenhouse in a state irrigated to a water depth of from 0.5 to 1 cm, and next day or two days later, tubers of Japanese ribbon waparo (Sagittaria pygmaea) were planted. Then, the irrigated water depth was maintained to be from 3 to 4 cm, and when barnyardgrass and Japanese bulrush reached 0.5 leaf stage, and Japanese ribbon waparo reached primary leaf stage, a water diluted solution of a wettable powder or an emulsifieable concentrate of the compound of the present invention prepared in accordance with a conventional preparation method, was uniformly dropwise applied by a pipette so that the amount of active ingredients would be a prescribed amount. Further, paddy field soil was put into a 1/1,000,000 pot, followed by soil puddling to an irrigated water depth of from 3 to 4 cm. Next day, rice (Oryza sativa L.) (var.: Nihonbare) of two leaf stage was transplanted in a transplantation depth of 3 cm. On the 4th day after transplantation, the compound of the present invention was applied in the same manner as described above.

[20] = system: Japanese ribbon waparo (Sagittaria pygmaea); assay: Test Example 4: paddy field pot, water application; details: 63 g/ha, 14th day after application
Text: as §3

[21] = system: barnyardgrass (Echinochloa oryzicola vasing.); assay: Test Example 4: paddy field pot, water application; details: 63 g/ha, 14th day after application
Text: as §3

[22] = system: rice (Oryza sativa L.) (var.: Nihonbare); assay: Test Example 4: paddy field pot, water application, transplanted rice; details: 63 g/ha, 21st day after application, crop
Text: as §3

CCCOC(=O)OC(C)Oc1c(C(=O)c2ccc(S(C)(=O)=O)c(OCCOC)c2C)cnn1C (racemic) [compound 19]
Growth inhibition rate (%) Velvetleaf [1]: 95%
Growth inhibition rate (%) Barnyardgrass [2]: 95%
Growth inhibition rate (%) Corn [3]: 0%
Growth inhibition rate (%) Crabgrass [4]: 90%
Growth inhibition rate (%) Green foxtail [5]: 100%
Growth inhibition rate (%) Prickly sida [6]: 30%
Growth inhibition rate (%) Redroot pigweed [7]: 95%
Growth inhibition rate (%) Rice [8]: 80%
Growth inhibition rate (%) Soybean [9]: 80%
Growth inhibition rate (%) Barnyardgrass [10]: 100%
Growth inhibition rate (%) Corn [11]: 0%
Growth inhibition rate (%) Crabgrass [12]: 100%
Growth inhibition rate (%) Green foxtail [13]: 100%
Growth inhibition rate (%) Prickly sida [14]: 60%
Growth inhibition rate (%) Redroot pigweed [15]: 100%
Growth inhibition rate (%) Rice [16]: 100%
Growth inhibition rate (%) Soybean [17]: 40%
Growth inhibition rate (%) Velvetleaf [18]: 98%
Growth inhibition rate (%) Japanese bulrush [19]: 95%
Growth inhibition rate (%) Japanese ribbon waparo [20]: 95%
Growth inhibition rate (%) Barnyardgrass [21]: 100%
Growth inhibition rate (%) Rice [22]: 20%

CCOC(=O)OC(C)Oc1c(C(=O)c2ccc(S(C)(=O)=O)c(C(=O)OC)c2C)cnn1C (racemic) [compound 21]
Growth inhibition rate (%) Velvetleaf [1]: 85%
Growth inhibition rate (%) Barnyardgrass [2]: 90%
Growth inhibition rate (%) Corn [3]: 0%
Growth inhibition rate (%) Crabgrass [4]: 90%
Growth inhibition rate (%) Green foxtail [5]: 80%
Growth inhibition rate (%) Redroot pigweed [7]: 90%
Growth inhibition rate (%) Rice [8]: 80%
Growth inhibition rate (%) Soybean [9]: 95%
Growth inhibition rate (%) Barnyardgrass [10]: 100%
Growth inhibition rate (%) Corn [11]: 0%
Growth inhibition rate (%) Crabgrass [12]: 100%
Growth inhibition rate (%) Green foxtail [13]: 100%
Growth inhibition rate (%) Prickly sida [14]: 60%
Growth inhibition rate (%) Redroot pigweed [15]: 100%
Growth inhibition rate (%) Rice [16]: 100%
Growth inhibition rate (%) Soybean [17]: 50%
Growth inhibition rate (%) Velvetleaf [18]: 90%
Growth inhibition rate (%) Japanese bulrush [19]: 70%
Growth inhibition rate (%) Japanese ribbon waparo [20]: 70%
Growth inhibition rate (%) Barnyardgrass [21]: 100%
Growth inhibition rate (%) Rice [22]: 10%

CCOC(=O)OC(C)Oc1c(C(=O)c2ccc(S(C)(=O)=O)c(OCCOC)c2C)cnn1CC (racemic) [compound 3]
Growth inhibition rate (%) Velvetleaf [1]: 90%
Growth inhibition rate (%) Barnyardgrass [2]: 95%
Growth inhibition rate (%) Corn [3]: 0%
Growth inhibition rate (%) Crabgrass [4]: 95%
Growth inhibition rate (%) Green foxtail [5]: 100%
Growth inhibition rate (%) Prickly sida [6]: 10%
Growth inhibition rate (%) Redroot pigweed [7]: 90%
Growth inhibition rate (%) Rice [8]: 80%
Growth inhibition rate (%) Soybean [9]: 70%
Growth inhibition rate (%) Barnyardgrass [10]: 100%
Growth inhibition rate (%) Corn [11]: 0%
Growth inhibition rate (%) Crabgrass [12]: 100%
Growth inhibition rate (%) Green foxtail [13]: 100%
Growth inhibition rate (%) Prickly sida [14]: 50%
Growth inhibition rate (%) Redroot pigweed [15]: 100%
Growth inhibition rate (%) Rice [16]: 100%
Growth inhibition rate (%) Soybean [17]: 20%
Growth inhibition rate (%) Velvetleaf [18]: 80%
Growth inhibition rate (%) Japanese bulrush [19]: 95%
Growth inhibition rate (%) Japanese ribbon waparo [20]: 90%
Growth inhibition rate (%) Barnyardgrass [21]: 100%
Growth inhibition rate (%) Rice [22]: 40%

CCOC(=O)OC(C)Oc1c(C(=O)c2ccc(S(C)(=O)=O)c(OCCOC)c2C)c(C)nn1C (racemic) [compound 11]
Growth inhibition rate (%) Velvetleaf [1]: 60%
Growth inhibition rate (%) Barnyardgrass [2]: 90%
Growth inhibition rate (%) Corn [3]: 0%
Growth inhibition rate (%) Crabgrass [4]: 90%
Growth inhibition rate (%) Green foxtail [5]: 90%
Growth inhibition rate (%) Prickly sida [6]: 10%
Growth inhibition rate (%) Redroot pigweed [7]: 80%
Growth inhibition rate (%) Rice [8]: 80%
Growth inhibition rate (%) Soybean [9]: 70%
Growth inhibition rate (%) Barnyardgrass [10]: 100%
Growth inhibition rate (%) Corn [11]: 0%
Growth inhibition rate (%) Crabgrass [12]: 100%
Growth inhibition rate (%) Green foxtail [13]: 100%
Growth inhibition rate (%) Prickly sida [14]: 40%
Growth inhibition rate (%) Redroot pigweed [15]: 100%
Growth inhibition rate (%) Rice [16]: 100%
Growth inhibition rate (%) Soybean [17]: 20%
Growth inhibition rate (%) Velvetleaf [18]: 70%
Growth inhibition rate (%) Japanese bulrush [19]: 100%
Growth inhibition rate (%) Japanese ribbon waparo [20]: 60%
Growth inhibition rate (%) Barnyardgrass [21]: 98%
Growth inhibition rate (%) Rice [22]: 60%

CCOC(=O)OC(C)Oc1c(C(=O)c2ccc(S(C)(=O)=O)c(COCC(F)(F)F)c2C)cnn1C (racemic) [compound 15]
Growth inhibition rate (%) Velvetleaf [1]: 98%
Growth inhibition rate (%) Barnyardgrass [2]: 70%
Growth inhibition rate (%) Corn [3]: 10%
Growth inhibition rate (%) Crabgrass [4]: 95%
Growth inhibition rate (%) Green foxtail [5]: 75%
Growth inhibition rate (%) Prickly sida [6]: 0%
Growth inhibition rate (%) Redroot pigweed [7]: 90%
Growth inhibition rate (%) Rice [8]: 40%
Growth inhibition rate (%) Soybean [9]: 75%
Growth inhibition rate (%) Barnyardgrass [10]: 100%
Growth inhibition rate (%) Corn [11]: 0%
Growth inhibition rate (%) Crabgrass [12]: 100%
Growth inhibition rate (%) Green foxtail [13]: 100%
Growth inhibition rate (%) Prickly sida [14]: 70%
Growth inhibition rate (%) Redroot pigweed [15]: 100%
Growth inhibition rate (%) Rice [16]: 100%
Growth inhibition rate (%) Soybean [17]: 0%
Growth inhibition rate (%) Velvetleaf [18]: 100%
Growth inhibition rate (%) Japanese bulrush [19]: 60%
Growth inhibition rate (%) Barnyardgrass [21]: 100%
Growth inhibition rate (%) Rice [22]: 10%

CCOC(=O)OC(C)Oc1c(C(=O)c2ccc(S(C)(=O)=O)c(OCCOC)c2C)cnn1C(C)C (racemic) [compound 18]
Growth inhibition rate (%) Velvetleaf [1]: 95%
Growth inhibition rate (%) Barnyardgrass [2]: 95%
Growth inhibition rate (%) Corn [3]: 0%
Growth inhibition rate (%) Crabgrass [4]: 95%
Growth inhibition rate (%) Green foxtail [5]: 90%
Growth inhibition rate (%) Prickly sida [6]: 30%
Growth inhibition rate (%) Redroot pigweed [7]: 95%
Growth inhibition rate (%) Rice [8]: 70%
Growth inhibition rate (%) Soybean [9]: 80%
Growth inhibition rate (%) Barnyardgrass [10]: 100%
Growth inhibition rate (%) Corn [11]: 0%
Growth inhibition rate (%) Crabgrass [12]: 100%
Growth inhibition rate (%) Green foxtail [13]: 100%
Growth inhibition rate (%) Prickly sida [14]: 70%
Growth inhibition rate (%) Redroot pigweed [15]: 100%
Growth inhibition rate (%) Rice [16]: 100%
Growth inhibition rate (%) Velvetleaf [18]: 100%
Growth inhibition rate (%) Japanese bulrush [19]: 90%
Growth inhibition rate (%) Japanese ribbon waparo [20]: 90%
Growth inhibition rate (%) Barnyardgrass [21]: 100%
Growth inhibition rate (%) Rice [22]: 0%

Source: patent publication US8119569B2, “Benzoylpyrazole compounds, process for their production and herbicides containing them” (Ishihara Sangyo Kaisha, Ltd., priority 2006, dated 2012)
